Results: PMC11240139, “Exploring the antitumor potential of novel quinoline derivatives via tubulin polymerization inhibition in breast cancer; design, synthesis and molecular docking” (RSC Advances, 2024)

Experiments:
Test in all cases: NCI-60 SRB cytotoxicity screen
Type in all cases: cell-based
LOX IMVI (melanoma) = details: Homo sapiens, single dose 10 μM, read-out: growth inhibition (GI%)
ACHN (renal cancer) = details: Homo sapiens, single dose 10 μM, read-out: growth inhibition (GI%)
SR (leukemia) = details: single dose 10 μM, read-out: growth inhibition (GI%)
SW-620 (colon cancer) = details: Homo sapiens; SW-620, single dose 10 μM; read-out: growth inhibition (GI%)
MCF7 (breast cancer) = details: Homo sapiens; MCF7, single dose 10 μM; read-out: growth inhibition (GI%)
SK-MEL-5 (melanoma) = details: Homo sapiens; SK-MEL-5, single dose 10 μM; read-out: growth inhibition (GI%)
SF-539 (CNS cancer) = details: Homo sapiens; SF-539, single dose 10 μM; read-out: growth inhibition (GI%)
[1] = tested on: NCI/ADR-RES (ovarian cancer); details: Homo sapiens, single dose 10 μM, read-out: growth inhibition (GI%)
KM12 (colon cancer) = details: Homo sapiens; KM12, single dose 10 μM; read-out: growth inhibition (GI%)
IGROV1 (ovarian cancer) = details: Homo sapiens, IGROV-1; IGROV1, single dose 10 μM; read-out: growth inhibition (GI%)
786-0 (renal cancer) = details: Homo sapiens; 786-0, single dose 10 μM; read-out: growth inhibition (GI%)
CAKI-1 (renal cancer) = details: Homo sapiens; CAKI-1, single dose 10 μM; read-out: growth inhibition (GI%)
HT29 (colon cancer) = details: Homo sapiens, HT-29; HT29, single dose 10 μM; read-out: growth inhibition (GI%)
M14 (melanoma) = details: Homo sapiens; M14, single dose 10 μM; read-out: growth inhibition (GI%)
BT-549 (breast cancer) = details: Homo sapiens; BT-549, single dose 10 μM; read-out: growth inhibition (GI%)
[2] = tested on: MDA-MB-468 (breast cancer); details: Homo sapiens; MDA-MB-468, single dose 10 μM; read-out: growth inhibition (GI%)
Procedure, shortened: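 NCI-60 single-dose (10^−5 M) screen in MDA-MB-468 with SRB protein-stain read-out after 48 h exposure; cells TCA-fixed and absorbance read at 540 nm. Reported as GI%, with compounds meeting NCI activity criteria then run at five doses (0.01–100 μM).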

SN12C (renal cancer) = details: Homo sapiens, single dose 10 μM, read-out: growth inhibition (GI%)
SK-MEL-28 (melanoma) = details: Homo sapiens; SK-MEL-28, single dose 10 μM; read-out: growth inhibition (GI%)
[3] = tested on: NCI-H522 (non-small cell lung cancer); details: Homo sapiens; NCI-H522, single dose 10 μM; read-out: growth inhibition (GI%)
MOLT-4 (leukemia) = details: Homo sapiens; MOLT-4, single dose 10 μM; read-out: growth inhibition (GI%)
[4] = tested on: NCI-H460 (non-small cell lung cancer); details: Homo sapiens; NCI-H460, single dose 10 μM; read-out: growth inhibition (GI%)
[5] = tested on: NCI-H23 (non-small cell lung cancer); details: Homo sapiens; NCI-H23, single dose 10 μM; read-out: growth inhibition (GI%)
MALME-3M (melanoma) = details: Homo sapiens, single dose 10 μM, read-out: growth inhibition (GI%)
A498 (renal cancer) = details: Homo sapiens; A498, single dose 10 μM; read-out: growth inhibition (GI%)
MDA-MB-435 (melanoma) = details: Homo sapiens, MDA-MB-435, read-out: growth inhibition (GI%)
SNB-19 (CNS cancer) = details: Homo sapiens; SNB-19, single dose 10 μM; read-out: growth inhibition (GI%)
TK-10 (renal cancer) = details: Homo sapiens; TK-10, single dose 10 μM; read-out: growth inhibition (GI%)

## CCc1cccc2cc(-c3cc(-c4ccc(OC)cc4)[nH]c(=O)c3C#N)c(Cl)nc12 [Compound 4a, 4-(2-Chloro-8-ethylquinolin-3-yl)-6-(4-methoxyphenyl)-2-oxo-1,2-dihydropyridine-3-carbonitrile]
LOX IMVI (melanoma)
  inhibition at 10 µM: < 10%
ACHN (renal cancer)
  inhibition at 10 µM: < 10%
SR (leukemia)
  inhibition at 10 µM: < 10%
SW-620 (colon cancer)
  inhibition at 10 µM: < 10%
MCF7 (breast cancer)
  inhibition at 10 µM: 16%
SK-MEL-5 (melanoma)
  inhibition at 10 µM: 13.9%
SF-539 (CNS cancer)
  inhibition at 10 µM: < 10%
[1]
  inhibition at 10 µM: < 10%
KM12 (colon cancer)
  inhibition at 10 µM: < 10%
IGROV1 (ovarian cancer)
  inhibition at 10 µM: < 10%
786-0 (renal cancer)
  inhibition at 10 µM: 11.4%
CAKI-1 (renal cancer)
  inhibition at 10 µM: 34.9%
HT29 (colon cancer)
  inhibition at 10 µM: < 10%
M14 (melanoma)
  inhibition at 10 µM: < 10%
BT-549 (breast cancer)
  inhibition at 10 µM: 15.3%
[2]
  inhibition at 10 µM: 14%
SN12C (renal cancer)
  inhibition at 10 µM: < 10%
SK-MEL-28 (melanoma)
  inhibition at 10 µM: < 10%
[3]
  inhibition at 10 µM: 11.9%
MOLT-4 (leukemia)
  inhibition at 10 µM: 11.9%
[4]
  inhibition at 10 µM: < 10%
[5]
  inhibition at 10 µM: < 10%
MALME-3M (melanoma)
  inhibition at 10 µM: < 10%
A498 (renal cancer)
  inhibition at 10 µM: < 10%
MDA-MB-435 (melanoma)
  inhibition at 10 µM: < 10%
SNB-19 (CNS cancer)
  inhibition at 10 µM: < 10%
TK-10 (renal cancer)
  inhibition at 10 µM: < 10%

## CCc1cccc2cc(-c3cc(-c4ccc(OC)c(OC)c4)[nH]c(=O)c3C#N)c(Cl)nc12 [Compound 4b, 4-(2-Chloro-8-ethylquinolin-3-yl)-6-(3,4-dimethoxyphenyl)-2-oxo-1,2-dihydropyridine-3-carbonitrile]
LOX IMVI (melanoma)
  inhibition at 10 µM: < 10%
ACHN (renal cancer)
  inhibition at 10 µM: < 10%
SR (leukemia)
  inhibition at 10 µM: < 10%
SW-620 (colon cancer)
  inhibition at 10 µM: < 10%
MCF7 (breast cancer)
  inhibition at 10 µM: 11.3%
SK-MEL-5 (melanoma)
  inhibition at 10 µM: < 10%
SF-539 (CNS cancer)
  inhibition at 10 µM: < 10%
[1]
  inhibition at 10 µM: < 10%
KM12 (colon cancer)
  inhibition at 10 µM: < 10%
IGROV1 (ovarian cancer)
  inhibition at 10 µM: < 10%
786-0 (renal cancer)
  inhibition at 10 µM: < 10%
CAKI-1 (renal cancer)
  inhibition at 10 µM: 39.2%
HT29 (colon cancer)
  inhibition at 10 µM: < 10%
M14 (melanoma)
  inhibition at 10 µM: < 10%
BT-549 (breast cancer)
  inhibition at 10 µM: < 10%
[2]
  inhibition at 10 µM: < 10%
SN12C (renal cancer)
  inhibition at 10 µM: < 10%
SK-MEL-28 (melanoma)
  inhibition at 10 µM: < 10%
[3]
  inhibition at 10 µM: 14.7%
MOLT-4 (leukemia)
  inhibition at 10 µM: < 10%
[4]
  inhibition at 10 µM: < 10%
[5]
  inhibition at 10 µM: < 10%
MALME-3M (melanoma)
  inhibition at 10 µM: < 10%
A498 (renal cancer)
  inhibition at 10 µM: < 10%
MDA-MB-435 (melanoma)
  inhibition at 10 µM: < 10%
SNB-19 (CNS cancer)
  inhibition at 10 µM: < 10%
TK-10 (renal cancer)
  inhibition at 10 µM: < 10%

## CCc1cccc2cc(-c3cc(-c4cc(OC)c(OC)c(OC)c4)[nH]c(=S)c3C#N)c(Cl)nc12 [Compound 5c, 4-(2-Chloro-8-ethylquinolin-3-yl)-2-thioxo-6-(3,4,5-trimethoxyphenyl)-1,2-dihydropyridine-3-carbonitrile]
LOX IMVI (melanoma)
  inhibition at 10 µM: 38.3%
ACHN (renal cancer)
  inhibition at 10 µM: 32.5%
SR (leukemia)
  inhibition at 10 µM: 49%
SW-620 (colon cancer)
  inhibition at 10 µM: 10%
MCF7 (breast cancer)
  inhibition at 10 µM: 46.5%
SK-MEL-5 (melanoma)
  inhibition at 10 µM: 52.2%
SF-539 (CNS cancer)
  inhibition at 10 µM: 29.7%
[1]
  inhibition at 10 µM: 28.5%
KM12 (colon cancer)
  inhibition at 10 µM: 37.2%
IGROV1 (ovarian cancer)
  inhibition at 10 µM: 33.4%
786-0 (renal cancer)
  inhibition at 10 µM: 27.9%
CAKI-1 (renal cancer)
  inhibition at 10 µM: 69.8%
HT29 (colon cancer)
  inhibition at 10 µM: 20.4%
M14 (melanoma)
  inhibition at 10 µM: 31.2%
BT-549 (breast cancer)
  inhibition at 10 µM: 21.1%
[2]
  inhibition at 10 µM: 50.5%
SN12C (renal cancer)
  inhibition at 10 µM: 39.7%
SK-MEL-28 (melanoma)
  inhibition at 10 µM: < 10%
[3]
  inhibition at 10 µM: 65.7%
MOLT-4 (leukemia)
  inhibition at 10 µM: 61.2%
[4]
  inhibition at 10 µM: 21.8%
[5]
  inhibition at 10 µM: 33.7%
MALME-3M (melanoma)
  inhibition at 10 µM: < 10%
A498 (renal cancer)
  inhibition at 10 µM: 18.8%
MDA-MB-435 (melanoma)
  inhibition at 10 µM: 24.9%
SNB-19 (CNS cancer)
  inhibition at 10 µM: 39.1%
TK-10 (renal cancer)
  inhibition at 10 µM: < 10%
